Measured values published in US20030044399A1, “Method of treatment” (SmithKline Beecham Corporation, priority 1998, published 2003).
Like-named read-outs stand apart in the source and are kept apart here.

Assays:
Cruzain = Cruzain (Trypanosoma cruzi, UniProt P25779); assay: Cysteine protease inhibition, progress curve method, cruzain; type: biochemical; details: 4 uM Ac-Lys-Glu-Lys-Leu-Arg-AMC, 100 mM Na acetate pH 5.5, 5 mM cysteine; read-out: Cruzain Ki
Protocol: (§1) Standard assay conditions for the determination of kinetic constants used 10 uM fluorogenic peptide substrate, Cbz-Phe-Arg-AMC for the cysteine proteases from Leishmania spp and Schistosoma Mansoni, Cbz-Leu-Arg-AMC for the cysteine proteases from Plasmodium falciparum and Trypanosoma brucei rhodesiensi, and Ac-Lys-Glu-Lys-Leu-Arg-AMC (4 uM final substrate concentration) for the cysteine protease from Trypoanosoma cruzi, and were determined in 100 mM Na acetate at pH 5.5 containing 5 mM cysteine. Stock substrate solutions were prepared at concentrations of […] in DMSO with 10 uM (4 uM for Ac-Lys-Glu-Lys-Leu-Arg-AMC) final substrate concentration in the assays. The final DMSO concentration was 2% and the final volume was 100 uL. All assays were conducted at ambient temperature. Product progress curves were generated over 20 to 30 minutes following formation of AMC product.
(§2) Potential inhibitors were evaluated using the progress curve method. Assays were carried out in the presence of variable concentrations of test compound. Reactions were initiated by addition of enzyme to buffered solutions of inhibitor and substrate. Data analysis was conducted according to one of two procedures depending on the appearance of the progress curves in the presence of inhibitors. For those compounds whose progress curves were linear, apparent inhibition constants (Ki,app) were calculated according to equation 1 (Brandt et al., Biochemitsry, 1989, 28, 140):
(§3) v=VmA/[Ka(1+I/Ki,app)+A] (1)
(§4) Where v is the velocity of the reaction with maximal velocity Vm, A is the concentration of substrate with Michaelis constant of Ka, and I is the concentration of inhibitor.
(§5) [AMC]=vsst+(v0−vss)[1−exp (−kobst)]/kobs (2)
(§6) Where [AMC] is the concentration of product formed over time t, v0 is the initial reaction velocity and vss is the final steady state rate. Values for kobs were then analyzed as a linear function of inhibitor concentration to generate an apparent second order rate constant (kobs/inhibitor concentration or kobs/[I]) describing the time-dependent inhibition. A complete discussion of this kinetic treatment has been fully described (Morrison et al., Adv. Enzymol. Relat. Areas Mol. Biol., 1988, 61, 201).
(§7) Exemplary inhibition data for the compounds used in the present method collected in accordance with the above-described procedure are listed in Table I.

Rhodazain = Rhodazain (Trypanosoma brucei rhodesiense, UniProt Q95PM0); assay: Cysteine protease inhibition, progress curve method, rhodazain; type: biochemical, Trypanosoma brucei rhodesiensi; details: 10 uM Cbz-Leu-Arg-AMC, 100 mM Na acetate pH 5.5, 5 mM cysteine
Protocol: as §1, §2, §3, §4, §5, §6, §7

Chain of Rhodazain (Q95PM0 entry or part of it): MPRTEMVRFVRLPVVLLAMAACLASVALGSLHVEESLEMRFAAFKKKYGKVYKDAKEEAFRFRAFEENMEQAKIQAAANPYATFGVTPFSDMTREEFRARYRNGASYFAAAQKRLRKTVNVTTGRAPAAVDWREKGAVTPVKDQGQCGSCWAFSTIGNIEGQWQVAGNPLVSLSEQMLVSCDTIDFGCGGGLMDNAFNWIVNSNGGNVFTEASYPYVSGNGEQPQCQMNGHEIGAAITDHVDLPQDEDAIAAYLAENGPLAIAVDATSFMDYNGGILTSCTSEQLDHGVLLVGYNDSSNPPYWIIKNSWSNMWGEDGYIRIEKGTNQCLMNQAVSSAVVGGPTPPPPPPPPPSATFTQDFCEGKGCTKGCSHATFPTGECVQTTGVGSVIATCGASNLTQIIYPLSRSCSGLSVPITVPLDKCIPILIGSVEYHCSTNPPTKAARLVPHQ
Chain of Cruzain (P25779 123-337): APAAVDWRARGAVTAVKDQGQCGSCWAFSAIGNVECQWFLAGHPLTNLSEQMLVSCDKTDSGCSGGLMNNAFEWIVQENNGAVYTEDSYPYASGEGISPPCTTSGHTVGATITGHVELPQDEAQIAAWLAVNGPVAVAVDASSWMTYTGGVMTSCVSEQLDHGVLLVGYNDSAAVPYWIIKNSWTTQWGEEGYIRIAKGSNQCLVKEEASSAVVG

5,6-Dimethoxy-benzofuran-2-carboxylic acid {(S)-3-methyl-1-[3-oxo-1-(1-oxy-pyridine-2-sulfonyl)-azepan-4-ylcarbamoyl]-butyl}amide [Example 48]
Ki (Cruzain): 19 nM | Ki (Rhodazain; read-out: Rhodazain Ki): 4.2 nM

5-(2-Morpholin-4-yl-ethoxy)-benzofuran-2-carboxylic acid {(S)-3-methyl-1-[3-oxo-(1-oxy-pyridine2-sulfonyl)-azepan-4-ylcarbamoyl]-buty}-amide [Example 116]
Ki (Cruzain): 4.4 nM | Ki (Rhodazain; read-out: Rhodazain Ki): 3.2 nM

COc1ccc2oc(C(=O)N[C@H](CC(C)C)C(=O)N[C@@H]3CCCN(S(=O)(=O)c4cccc[n+]4[O-])CC3=O)cc2c1 (single isomer, unassigned) [Example 63]
Ki (Cruzain): 9.8 nM | Ki (Rhodazain; Rhodazain Ki (nM)): 5.9 nM

CC(C)C[C@@H](NC(=O)c1ccc(Br)o1)C(=O)N[C@@H]1CCCN(S(=O)(=O)c2ccccn2)CC1=O (single isomer, unassigned) [Example 68]
Ki (Cruzain): 3.3 nM | Ki (Rhodazain; Rhodazain Ki (nM)): 0.93 nM

Cc1c(C(=O)N[C@H](CC(C)C)C(=O)N[C@@H]2CCCN(S(=O)(=O)c3ccccn3)CC2=O)oc2ccccc12 (single isomer, unassigned) [Example 97]
Ki (Cruzain): 4 nM | Ki (Rhodazain; Rhodazain Ki (nM)): 2.7 nM

CC(C)C[C@@H](NC(=O)c1cc2sccc2s1)C(=O)N[C@@H]1CCCN(S(=O)(=O)c2ccccn2)CC1=O (single isomer, unassigned) [Example 98]
Ki (Cruzain): 5.2 nM | Ki (Rhodazain; Rhodazain Ki (nM)): 3.9 nM

Cc1c(C(=O)N[C@H](CC(C)C)C(=O)N[C@@H]2CCCN(S(=O)(=O)c3cccc[n+]3[O-])CC2=O)oc2ccccc12 (single isomer, unassigned) [Example 99]
Ki (Cruzain): 7.8 nM | Ki (Rhodazain; Rhodazain Ki (nM)): 5.1 nM

CC(C)C[C@@H](NC(=O)c1cc2cc(F)c(F)cc2o1)C(=O)N[C@@H]1CCCN(S(=O)(=O)c2ccccn2)CC1=O (single isomer, unassigned) [Example 150]
Ki (Cruzain): 5.4 nM | Ki (Rhodazain; Rhodazain Ki (nM)): 3.7 nM

CC(C)C[C@@H](NC(=O)c1ccc2ccccc2n1)C(=O)N[C@@H]1CCCN(S(=O)(=O)c2ccccn2)CC1=O (single isomer, unassigned) [Example 151]
Ki (Cruzain): 7.1 nM | Ki (Rhodazain; Rhodazain Ki (nM)): 6.1 nM

CC(C)C[C@@H](NC(=O)c1nccc2ccccc12)C(=O)N[C@@H]1CCCN(S(=O)(=O)c2ccccn2)CC1=O (single isomer, unassigned) [Example 154]
Ki (Cruzain): 4.4 nM | Ki (Rhodazain; Rhodazain Ki (nM)): 4.4 nM

CC(C)C[C@H](NC(=O)c1cc2ccccc2o1)C(=O)N[C@H]1C[C@H](C)CN(S(=O)(=O)c2ccccn2)CC1=O (single isomer, unassigned) [Example 167]
Ki (Cruzain): 3.5 nM | Ki (Rhodazain; Rhodazain Ki (nM)): 4 nM

CC(C)C[C@@H](NC(=O)c1cc2sccc2s1)C(=O)N[C@@H]1CCCN(S(=O)(=O)c2cccc[n+]2[O-])CC1=O [Example 62, Thieno[3,2-b]thiophene-2-carboxylic acid {(S)-3-methyl-1-[3-oxo-1-(1-oxy-pyridine-2-sulfonyl)-azepan-4-ylcarbamoyl]-butyl}amide]
Ki (Rhodazain; Rhodazain Ki (nM)): 5.3 nM

CC(C)C[C@H](NC(=O)c1ccc(-c2ccc(Cl)cc2)o1)C(=O)N[C@@H]1CCCN(S(=O)(=O)c2ccccn2)CC1=O [Example 65, 5-(4-Chloro-phenyl)-furan-2-carboxylic acid {(S)-3-methyl-1-[3-oxo-1-(pyridine-2-sulfonyl)-azepan-4-ylcarbamoyl]-butyl}amide]
Ki (Rhodazain; Rhodazain Ki (nM)): 8.1 nM

CC(C)C[C@H](NC(=O)c1nc(-c2ccccc2)oc1C(F)(F)F)C(=O)NC1CCCN(S(=O)(=O)c2ccccn2)CC1=O (stereo partly drawn) [Example 72, 2-Phenyl-5-trifluoromethyl-oxazole-4-carboxylic acid {(S)-3-methyl-1-[3-oxo-1-(pyridine-2-sulfonyl)-azepan-4-ylcarbamoyl]-butyl}amide]
Ki (Rhodazain; Rhodazain Ki (nM)): 9.9 nM

CC(C)CC(NC(=O)c1ccco1)C(=O)N[C@@H]1CCCN(S(=O)(=O)c2cccc[n+]2[O-])CC1=O (stereo partly drawn) [Example 75, Furan-2-carboxylic acid {(S)-3-methyl-1-[3-oxo-1-(1-oxy-pyridine-2-sulfonyl)-azepan-4-ylcarbamoyl]-butyl}amide]
Ki (Rhodazain; Rhodazain Ki (nM)): 7.5 nM

COc1ccc2oc(C(=O)N[C@@H](CC(C)C)C(=O)N[C@H]3CCCN(S(C)(=O)=O)CC3=O)cc2c1 [Example 81, 5-Methoxy-benzofuran-2-carboxylic acid [(S)-1-(1-methanesulfonyl-3-oxo-azepan-4-ylcarbamoyl)-3-methyl-butyl]-amide]
Ki (Rhodazain; Rhodazain Ki (nM)): 7.2 nM

CC(C)C[C@@H](NC(=O)c1cnc2ccccc2n1)C(=O)N[C@@H]1CCCN(S(=O)(=O)c2cccc[n+]2[O-])CC1=O [Example 101, Quinoxaline-2-carboxylic acid {(S)-3-methyl-1-[3-oxo-1-(1-oxy-pyridine-2-sulfonyl)-azepan-4-ylcarbamoyl]-butyl}amide]
Ki (Rhodazain; Rhodazain Ki (nM)): 11 nM

CC(C)C[C@H](NC(=O)c1cc2ccccc2o1)C(=O)N[C@@H]1CCCN(S(C)(=O)=O)CC1=O [Example 112, Benzofuran-2-carboxylic acid-{(S)-1-(1-methanesulfonyl-3-oxo-azepan-4-ylcarbamoyl)-3-methyl-butyl]-amide]
Ki (Rhodazain; Rhodazain Ki (nM)): 8.5 nM

COc1ccc(C(=O)NC(CC(C)C)C(=O)N[C@@H]2CCCN(S(C)(=O)=O)CC2=O)cc1OC (stereo partly shown) [Example 113]
Ki (Rhodazain; Rhodazain Ki (nM)): 7.8 nM

COc1ccc(CCCCC(=O)NC(CC(C)C)C(=O)NC2CCCN(S(=O)(=O)c3ccccn3)CC2=O)cc1 [Example 122, (S)-2-[5-(4-Methoxy-phenyl)-pentanoylamniol-4-methyl-pentanoic acid [3-oxo-1-(pyridine-2-sulfonyl)-azepan-4-yl[-amide]
Ki (Rhodazain; Rhodazain Ki (nM)): 8.8 nM

COc1ccc(CC(=O)N[C@@H](CC(C)C)C(=O)NC2CCCN(S(=O)(=O)c3ccccn3)CC2=O)cc1OCc1ccccc1 (stereo partly shown) [Example 123]
Ki (Rhodazain; Rhodazain Ki (nM)): 31 nM

CC(C)C[C@H](NC(=O)c1cnc2ccccc2n1)C(=O)N[C@H]1CCCN(S(=O)(=O)c2nccs2)CC1=O [Example 129, Quinoxaline-2-carboxylic acid {(S)-3-methyl-1-[3-oxo-1-(thiazole-2-sulfonyl)-azepan-4-ylcarbamoyl]-butyl}amide]
Ki (Rhodazain; Rhodazain Ki (nM)): 5.6 nM

O=C(N[C@@H](Cc1ccccc1)C(=O)NC1CCCN(S(=O)(=O)c2ccccn2)CC1=O)c1cccc2cccnc12 (stereo partly drawn) [Example 176, Quinoline-8-carboxylic acid {(S)-1-[3-oxo-1-(pyridine-2-sulfonyl)-azepan-4-ylcarbamoyl]-2-phenyl-ethyl}-amide]
Ki (Rhodazain; Rhodazain Ki (nM)): 5.9 nM

CC(C)C[C@@H](NC(=O)c1ccc(-c2cccc(C(F)(F)F)c2)o1)C(=O)NC1CCCN(C(=O)c2cccc[n+]2[O-])CC1=O (stereo partly drawn) [Example 186, 5-(3-Trifluoromethyl-phenyl)-furan-2-carboxylic acid ((S)-3-methyl-1-{3-oxo-1[-1-(1-oxy-pyridin-2-yl)-methanoyl]-azepan-4-ylcarbamoyl}-butyl)-amide]
Ki (Rhodazain; Rhodazain Ki (nM)): 11 nM

Cc1c(C(=O)N[C@H](CC(C)C)C(=O)N[C@H]2CCCN(S(=O)(=O)c3cccc[n+]3[O-])CC2=O)oc2cc(F)ccc12 [Example 193, 6-Fluoro-3-methyl-benzofuran-2-carboxylic acid {(S)-3-methyl-1-[3-oxo-1-(1-oxy-pyridine-2-sulfonyl)-azepan-4-ylcarbamoyl]-butyl}-amide]
Ki (Rhodazain; Rhodazain Ki (nM)): 8.1 nM

CCc1c(C(=O)N[C@@H](CC(C)C)C(=O)N[C@H]2CCN(S(=O)(=O)c3cccc[n+]3[O-])CCC2=O)oc2ccccc12 [Example 202, 3-Ethyl-benzofuran-2-carboxylic acid {(S)-3-methyl-1-[3-oxo-1-(1-oxy-pyridine-2-sulfonyl)-azepan-4-ylcarbamoyl]-butyl}-amide]
Ki (Rhodazain; Rhodazain Ki (nM)): 8.7 nM

COc1ccc2c(C)c(C(=O)N[C@@H](CC(C)C)C(=O)N[C@H]3CCN(S(=O)(=O)c4cccc[n+]4[O-])CCC3=O)oc2c1 [Example 204, 6-Methoxy-3-methyl-benzofuran-2-carboxylic acid {(S)-3-methyl-1-[3-oxo-1-(1-oxy-pyridine-2-sulfonyl)-azepan-4-ylcarbamoyl]-butyl}-amide]
Ki (Rhodazain; Rhodazain Ki (nM)): 4.5 nM

Cc1coc(C(=O)N[C@@H](CC(C)C)C(=O)N[C@H]2CCCN(C(=O)Nc3ccccc3F)CC2=O)c1 [Example 222, 4-Methyl-furan-2-carboxylic acid {(S)-1-[1-(2-fluoro-phenylcarbamoyl)-3-oxo-azepan-4-ylcarbamoyl]-3-methyl-butyl}-amide]
Ki (Rhodazain; Rhodazain Ki (nM)): 4.9 nM

Naphthyridine-2-carboxylic acid {(S)-3-methyl-1-[3-oxo-1-(pyridine-2-sulfonyl)-azepan-4-ylcarbamoyl]-butyl}-amide [Example 177]
Ki (Rhodazain; read-out: Rhodazain Ki): 9 nM
